Experiment [1] deals with BRD2-BD2 (Homo sapiens (Human), UniProt P25440). Kind of experiment: competitive TR-FRET assay, BET-BD with acetylated peptide ligand. As to conditions: for 2.1/2.2: ratio of BRD2-BD1 EC50 to BRD2-BD2 EC50 (selectivity); for EC50: Table 11 additional modifications. Type of experiment: binding. The protocol:
(§1) Inhibitor potency was determined using a competitive TR-FRET assay as detailed herein, measuring interaction of the respective BET-BD with an acetylated peptide ligand (Table 2).
A general note: In TR-FRET formats the signal depends on donor and acceptor labels being close together.

Experiment [2] has as its target BRD2-BD1 (Homo sapiens (Human), UniProt P25440). The description is as above. Type of experiment: binding. To be noted: BRD2-BD1; Table 11 additional modifications; read-out: 2.1 EC50. The protocol: as §1

This passage reports 2.1/2.2 and EC50 results from patent US11028051B2, “Tetrahydroquinoline-based bromodomain inhibitors” (St. Jude Children's Research Hospital, priority 2016, dated 2021).

SMILES strings stand for the structures. Like-named read-outs stand apart in the source and are kept apart here.

What is called EC50 is the concentration needed to bring the measured effect to its halfway point.

Chain of BRD2-BD2 (P25440 344-453): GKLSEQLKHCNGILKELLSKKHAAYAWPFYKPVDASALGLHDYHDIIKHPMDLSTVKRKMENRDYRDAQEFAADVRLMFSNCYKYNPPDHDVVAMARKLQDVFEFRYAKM
Chain of BRD2-BD1 (P25440 74-180): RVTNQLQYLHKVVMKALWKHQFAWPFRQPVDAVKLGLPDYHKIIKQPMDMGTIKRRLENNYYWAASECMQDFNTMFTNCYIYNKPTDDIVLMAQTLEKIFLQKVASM

Take `COC(=O)c1ccc(N[C@@H]2C[C@H](C)N(C(C)=O)c3ccc(-c4cn(C)cn4)cc32)cc1` [compound 157]: the 2.1/2.2 in experiment [1] stood at 52.
Still for that read-out and setting: the value for `CC(=O)N(c1ccc(NCC2CC2)cc1)[C@@H]1C[C@H](C)N(C(C)=O)c2ccc(-c3cccc(NC(=O)OC(C)(C)C)c3)cc21` [compound 122] was 70; that for `CC(=O)N1c2ccc(-c3cccc(NC(=O)C(C)(C)C)c3)cc2[C@H](Nc2ccc(Cl)cc2)C[C@@H]1C` [compound 206] was 57; that for `CC(=O)Nc1cccc(-c2ccc3c(c2)[C@H](Nc2cccc(CN)c2)C[C@H](C)N3C(C)=O)c1` [compound 163] was 6.7.
`CC(=O)N1c2ccc(-c3cccc(NC(=O)C(C)(C)C)c3)cc2[C@H](Nc2ccccc2Cl)C[C@@H]1C` [compound 205]: the 2.1/2.2 in experiment [1] stood at 64.
Still for that read-out and setting: the value for `COC(=O)c1ccc(CN[C@@H]2C[C@H](C)N(C(C)=O)c3ccc(-c4cccc(NC(C)=O)c4)cc32)cc1` [compound 159] was 2.9.
With `COc1cc(C#N)ccc1N[C@@H]1C[C@H](C)N(C(C)=O)c2ccc(-c3cccc(NC(C)=O)c3)cc21` [compound 189], the EC50 was found to be 17 nM in experiment [1] (BRD2-BD2, read-out: 2.2 EC50) and 670 nM in experiment [2]. In experiment [1], the 2.1/2.2 is 48.
In the same order, the values of `CC(=O)Nc1cccc(-c2ccc3c(c2)[C@H](Nc2ccc(C#N)cc2C)C[C@H](C)N3C(C)=O)c1` [compound 199] are 19 nM, 890 nM and 26.
`CC(=O)Nc1cccc(-c2ccc3c(c2)[C@H](Nc2ccc(C#N)cc2Cl)C[C@H](C)N3C(C)=O)c1` [compound 196]: the half-maximal effective concentration (EC50) in experiment [1] (BRD2-BD2, read-out: 2.2 EC50) worked out at 60 nM; in experiment [2], 2170 nM. The 2.1/2.2 in experiment [1] amounted to 27.
For the compound `CC(=O)N1c2ccc(-c3cc[nH]n3)cc2[C@H](Nc2ccc(F)c(F)c2)C[C@@H]1C` [compound 202], the 2.1/2.2 in experiment [1] came out at 36.
For `CC(=O)Nc1cccc(-c2ccc3c(c2)[C@H](Nc2ccc(C#N)c(F)c2)C[C@H](C)N3C(C)=O)c1` [compound 193], the 2.1/2.2 in experiment [1] is 63. The EC50 in experiment [2] was 1000 nM.
On to `CC(=O)N1c2ccc(-c3ccn(-c4ccc(C#N)cc4)n3)cc2[C@H](Nc2ccc(C#N)cc2)C[C@@H]1C` [compound 207], for which the 2.1/2.2 in experiment [1] stood at 44.
Turning to `CC(=O)Nc1cccc(-c2ccc3c(c2)[C@H](Nc2cccc(Cl)c2)C[C@H](C)N3C(C)=O)c1` [compound 198], the half-maximal effective concentration (EC50) in experiment [1] (BRD2-BD2, read-out: 2.2 EC50) came out at 57 nM; in experiment [2], 3300 nM. Moreover, the 2.1/2.2 in experiment [1] is given as 19.
Turning to `CC(=O)Nc1cccc(-c2ccc3c(c2)[C@H](Nc2ccccc2C)C[C@H](C)N3C(C)=O)c1` [compound 200], the 2.1/2.2 in experiment [1] is recorded as 92. Moreover, the EC50 in experiment [2] is 2000 nM.
Consider `COc1cc(N[C@@H]2C[C@H](C)N(C(C)=O)c3ccc(-c4cccc(NC(C)=O)c4)cc32)ccc1C#N` [compound 191], for which the EC50 in experiment [1] (BRD2-BD2, read-out: 2.2 EC50) is 47 nM; in experiment [2], 1200 nM. In experiment [1], the 2.1/2.2 is 26.
For the compound `COC(=O)c1ccc(CN(Cc2ccc(C(=O)OC)cc2)[C@@H]2C[C@H](C)N(C(C)=O)c3ccc(-c4cccc(NC(C)=O)c4)cc32)cc1` [compound 158], the 2.1/2.2 in experiment [1] was 11.
Regarding `CC(=O)Nc1cccc(-c2ccc3c(c2)[C@H](Nc2ccccc2Cl)C[C@H](C)N3C(C)=O)c1` [compound 197], the 50% effective concentration (EC50) was determined as 54 nM in experiment [1] (BRD2-BD2, read-out: 2.2 EC50) and 3500 nM in experiment [2]. Further, in experiment [1], the 2.1/2.2 was 39.
For the compound `CC(=O)N1c2ccc(-c3cc[nH]n3)cc2[C@H](Nc2ccccc2Cl)C[C@@H]1C` [compound 203], the 2.1/2.2 in experiment [1] is on record as 51.
Turning to `CC(=O)N(c1ccc(NCCC(C)C)cc1)[C@@H]1C[C@H](C)N(C(C)=O)c2ccc(-c3cccc(NC(=O)OC(C)(C)C)c3)cc21` [compound 124], the 2.1/2.2 in experiment [1] is reported as 4.0.
Turning to `CC(=O)Nc1cccc(-c2ccc3c(c2)[C@H](Nc2cc(F)c(C#N)c(F)c2)C[C@H](C)N3C(C)=O)c1` [compound 190], the concentration giving a half-maximal response (EC50) in experiment [1] (BRD2-BD2, read-out: 2.2 EC50) was 120 nM; in experiment [2], 2200 nM. In experiment [1], the 2.1/2.2 was found to be 37.
As to `CC(=O)N1c2ccc(-c3cccc(NCCC(F)(F)F)c3)cc2[C@H](Nc2ccc(C#N)cc2)C[C@@H]1C` [compound 180], the 2.1/2.2 in experiment [1] was 13.
On to `CC(=O)Nc1cccc(-c2ccc3c(c2)[C@H](Nc2ccc(C#N)c(C)c2)C[C@H](C)N3C(C)=O)c1` [compound 195], for which the EC50 in experiment [1] (BRD2-BD2, read-out: 2.2 EC50) came out at 17 nM; in experiment [2], 870 nM. The 2.1/2.2 in experiment [1] is on record as 73.
Consider `CC(=O)N1c2ccc(-c3ccn(C)n3)cc2[C@H](Nc2ccc(C#N)cc2)C[C@@H]1C` [compound 182], for which the 2.1/2.2 in experiment [1] worked out at 23.
Consider `CC(=O)Nc1cccc(-c2ccc3c(c2)[C@H](Nc2ccc(C#N)c(Cl)c2)C[C@H](C)N3C(C)=O)c1` [compound 186], for which the EC50 in experiment [1] (BRD2-BD2, read-out: 2.2 EC50) stood at 59 nM; in experiment [2], 2100 nM.
Consider `CC(=O)Nc1cccc(-c2ccc3c(c2)[C@H](Nc2ccc4c(c2)CCNC4)C[C@H](C)N3C(C)=O)c1` [compound 188], for which the EC50 turned out to be 4 nM in experiment [1] (BRD2-BD2, read-out: 2.2 EC50) and 110 nM in experiment [2].
`CC(=O)Nc1cccc(-c2ccc3c(c2)[C@H](Nc2ccc(NC(=O)CO)cc2)C[C@H](C)N3C(C)=O)c1` [compound 121]: in experiment [1], the 2.1/2.2 was 33.
Still for that read-out and setting: as for `CC(=O)N1c2ccc(-c3cccc(NCC4CCOC4)c3)cc2[C@H](Nc2ccc(C#N)cc2)C[C@@H]1C` (stereo partly shown) [compound 183], the figure is 27; as for `CC(=O)Nc1cccc(-c2ccc3c(c2)[C@H](NC2CCN(C)CC2)C[C@H](C)N3C(C)=O)c1` [compound 119], 2.9.
Regarding `CC(=O)Nc1cccc(-c2ccc3c(c2)[C@H](Nc2ccc(C#N)c(C(F)(F)F)c2)C[C@H](C)N3C(C)=O)c1` [compound 192], the 50% effective concentration (EC50) is 52 nM in experiment [1] (2.2 EC50, BRD2-BD2) and 4800 nM in experiment [2]. The 2.1/2.2 in experiment [1] is 6.3.
`COc1cccc(NC2CCN(C(C)=O)c3ccc(-c4cccc(NC(C)=O)c4)cc32)c1` (stereo not shown) [compound 178]: the 2.1/2.2 in experiment [1] stood at 22.
The same measure, in the same setting: as for `COC(=O)c1ccc(N[C@@H]2C[C@H](C)N(C(C)=O)c3ccc(-c4c[nH]cn4)cc32)cc1` [compound 156], the figure is 9.4.
As to `CC(=O)N1c2ccc(-c3cccc(NC(=O)C(C)C)c3)cc2[C@H](Nc2ccc(C#N)cc2)C[C@@H]1C` [compound 184], the 50% effective concentration (EC50) in experiment [1] (BRD2-BD2, read-out: 2.2 EC50) worked out at 110 nM; in experiment [2], 670 nM. Besides, in experiment [1], the 2.1/2.2 came out at 14.
For the compound `CC(=O)Nc1cccc(-c2ccc3c(c2)[C@H](Nc2ccc(F)cc2Cl)C[C@H](C)N3C(C)=O)c1` [compound 204], the 2.1/2.2 in experiment [1] stood at 36.
Regarding `CC(=O)Nc1cccc(-c2ccc3c(c2)[C@H](Nc2ccccc2Cl)C[C@H](C)N3C(C)=O)c1` [compound 187], the EC50 amounted to 120 nM in experiment [1] (BRD2-BD2, read-out: 2.2 EC50) and 8700 nM in experiment [2].
As to `CC(=O)Nc1cccc(-c2ccc3c(c2)[C@H](Nc2ccc(NC(=O)C4CC4)cc2)C[C@H](C)N3C(C)=O)c1` [compound 123], the 2.1/2.2 in experiment [1] is on record as more than 1000.
As to `CC(=O)Nc1cccc(-c2ccc3c(c2)[C@H](Nc2cccc(C(F)(F)F)c2)C[C@H](C)N3C(C)=O)c1` [compound 181], the half-maximal effective concentration (EC50) came to 170 nM in experiment [1] (BRD2-BD2, read-out: 2.2 EC50) and 8000 nM in experiment [2]. Moreover, the 2.1/2.2 in experiment [1] stood at 8.4.
With `CC(=O)Nc1cccc(-c2ccc3c(c2)[C@H](Nc2ccc(C(=O)COC(C)=O)cc2)C[C@H](C)N3C(C)=O)c1` [compound 162], the 2.1/2.2 in experiment [1] is reported as 21.
